Data set [1] is described as follows: Single dose PK study in male Wister-Han rats. The format is in vivo. Conditions: male, Wister-Han, rat, plasma, po, 5 mg/kg, 5 mg/kg oral dosing of active form; for concentration at 7 h: 7 hrs (footnote), read-out: Mean plasma concentration (nM), 7 hrs (row 8*). The method, then: The single dose PK in Male Wister-Han Rats was performed to assess pharmacokinetic properties of tested compounds. Two groups of animals were dosed via Gavage (POE) of the respective compound. […] Blood samples were placed into tubes containing EDTA-K2 anticoagulant and centrifuged at 5000 rpm for 6 min at 4° C. to separate plasma from the samples. After centrifugation, the resulting plasma was transferred to clean tubes for bioanalysis of both prodrug and active form on LC/MS/MS. In the groups that prodrug were dosed, the concentration of prodrugs in the plasma samples was under the detection limit. The “tested compound” in Table 8 was used as the internal standard for testing the metabolite (active form) of “dose compound” in vivo. The pharmacokinetic parameters were calculated using non-compartmental module of WinNonlin® Professional 6.2. The peak concentration (Cmax) was recorded directly from experimental observations. The area under the plasma concentration-time curve (AUC0-t) was calculated using the linear trapezoidal rule up to the last detectable concentration. Cmax and AUC0-last are two critical PK parameters related to the in vivo efficacy of the tested compound. Compounds with higher Cmax and AUC0-last will lead to the better in vivo efficacy.

For data set [2] the following is noted: phase Ib, patients with chronic hepatitis B; cited from earlier work.
The next data set addresses T1, human TLR7 (Homo sapiens, UniProt Q9NYK1).
T1 sequence (Q9NYK1 27-1049): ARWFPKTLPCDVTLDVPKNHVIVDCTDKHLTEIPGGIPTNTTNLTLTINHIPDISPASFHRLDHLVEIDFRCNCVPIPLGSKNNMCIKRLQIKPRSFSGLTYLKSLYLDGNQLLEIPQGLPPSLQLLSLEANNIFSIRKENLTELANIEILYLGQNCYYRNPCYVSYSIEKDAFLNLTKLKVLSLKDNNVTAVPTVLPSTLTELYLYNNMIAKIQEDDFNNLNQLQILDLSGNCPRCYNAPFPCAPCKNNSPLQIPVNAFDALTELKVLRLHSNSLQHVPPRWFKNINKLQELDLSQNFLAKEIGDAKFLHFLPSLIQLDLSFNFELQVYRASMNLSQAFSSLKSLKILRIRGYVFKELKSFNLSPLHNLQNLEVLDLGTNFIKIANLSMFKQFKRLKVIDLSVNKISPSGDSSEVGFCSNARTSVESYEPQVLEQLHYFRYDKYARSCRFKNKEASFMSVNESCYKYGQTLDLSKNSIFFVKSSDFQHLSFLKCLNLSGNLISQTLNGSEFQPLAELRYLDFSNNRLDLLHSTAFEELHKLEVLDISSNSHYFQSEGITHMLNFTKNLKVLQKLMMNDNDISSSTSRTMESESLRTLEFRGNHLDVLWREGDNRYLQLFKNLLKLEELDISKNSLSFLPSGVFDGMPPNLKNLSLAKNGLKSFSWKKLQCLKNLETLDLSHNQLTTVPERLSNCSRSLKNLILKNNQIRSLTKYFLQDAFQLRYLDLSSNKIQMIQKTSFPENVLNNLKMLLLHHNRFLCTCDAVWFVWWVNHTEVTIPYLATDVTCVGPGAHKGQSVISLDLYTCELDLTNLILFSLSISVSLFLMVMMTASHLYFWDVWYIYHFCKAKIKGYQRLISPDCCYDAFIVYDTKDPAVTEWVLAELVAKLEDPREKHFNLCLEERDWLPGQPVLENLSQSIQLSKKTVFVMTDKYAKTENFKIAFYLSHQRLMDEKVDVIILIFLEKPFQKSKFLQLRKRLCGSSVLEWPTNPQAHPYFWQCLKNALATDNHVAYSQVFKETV
As to the kind of experiment: HEK293-Blue-hTLR-7 cells assay (SEAP reporter). The note with it: for EC50: HEK293-Blue-hTLR-7 cells, SEAP reporter, 20 hrs. In kind it is cell-based. The method in brief: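 HEK293-Blue-hTLR7 cells with NF-κB/AP-1-driven SEAP reporter exposed to serially diluted compound (1% DMSO) for 20 hrs at 37° C. Supernatant SEAP measured with QUANTI-Blue after 2 hrs at 37° C, absorbance 620~655 nm; agonism expressed as EC50.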

Data set [3] can be described thus: Portal vein study: oral PK in PVC/CAC dual cannulated rat. In kind it is in vivo. Conditions: prodrug 10 mg/kg oral, analyte prodrug. The method, then: Surgery was performed under pentobarbital/isoflurane anesthesia. Briefly, after disinfecting the abdominal area with betadine and 70% isopropyl alcohol, a small abdominal mid-line incision was made. The cecum was pulled out and mesenteric vein was identified and isolated for about 5 mm vessel. A loose ligature was placed proximally and distal end of the vein was ligated. Make a small incision (just enough to allow the insertion of the catheter) on isolated vein and insert the PU catheter towards liver for appropriate length. The catheter was secured in place by tying the loose ligature around the cannulated vessel. The cecum was replaced into abdominal cavity. A hole was made in the right abdominal wall to make the end of catheter pass freely. The catheter was secured by suture on the abdominal wall. The abdominal muscle incision was closed with suture. A small incision was made in the scapular area to serve as the exit site of the catheter. The catheter was subcutaneously tunneled and exteriorized through the scapular incision. A fixed suture was placed in the scapular region. The patency of the catheter was checked and then exteriorized from the subcutaneous space to the dorsal neck region. After gently wiping the area, the abdominal cavity was sutured. The left carotid artery was then cannulated by inserting a PESO catheter. Both the exteriorized catheters were tied firmly on the dorsal neck region and fixed. The animals was then allowed to recover in its cage and used for study at least 3 days after surgery. All catheters were flushed once daily with heparinized saline to maintain patency. Animals were fasted overnight (n=3) and administered vial oral gavage (10 mg/kg, 10 mL/kg). Blood samples (60 μL) were collected simultaneously from the portal and carotid artery catheters at 0.083, 0.25, 0.5, 1, 2, 4, 7, 24 h. All blood samples will be transferred into microcentrifuge tubes containing 2 μL of K2EDTA (0.5M) as anti-coagulant and placed on wet ice. Then blood samples will be processed for plasma by centrifugation at approximately 4° C., 3000 g within half an hour of collection. Plasma samples will be stored in polypropylene tubes, quick frozen over dry ice and kept at −70±10° C. until LC/MS/MS analysis. Pharmacokinetic parameters (mean±SD, n=3) of prodrugs and active forms in portal and carotid samples following oral administration of prodrugs (10 mg/kg) in portal vein cannulated rat were detected and analyzed.

The nature of another data set: LYSA solubility study. In kind it is physicochemical. Conditions: for solubility thermodynamic: phosphate buffer, pH 6.5, aqueous buffer, thermodynamic from solid, 0.05M phosphate buffer pH 6.5, read-out: LYSA of Active Forms. The procedure, abridged:
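Samples from 10 mM DMSO stock were dried, redissolved in 0.05M phosphate buffer pH 6.5, stirred 1 h, shaken 2 h, left overnight and filtered. Filtrate and 1/10 dilution quantified by HPLC-UV; solubility in μg/mL, reported as greater-than when >80% of the maximum sample amount was in solution.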

[4] abbreviates: active form, read-out: HEK293-hTLR-7 EC50 (Active form).

Structures are written as SMILES. Values after ≈ are worked out from the molar mass of the structure shown. Read-outs that look alike come from different tables or passages of the source.

Broadly, the Cmax is the peak of the concentration-time curve. On to `CCCCOc1nc(N)c2c(n1)N(Cc1cccc(CN3CCCC3)c1)CC(=O)N2` [GS9620, reference compound], for which, in data set [1], the AUC(0-t) was 0.316 µM·h, the Cmax came out at 164 nM, the concentration at 0.25 h was 56.3 nM and the concentration at 0.5 h turned out to be 33.2 nM. Besides, in data set [1], the concentration at 1 h worked out at 83.4 nM, the concentration at 2 h is 136 nM and the concentration at 4 h was 16.7 nM. The compound further came in with a concentration at 8 h in data set [1] (8 h) of 9.49 nM. Moreover, in data set [2], the “ISG15 mRNA induction” value is on record as “dose-dependent ISG15 mRNA induction”; the safety and tolerability result is reported as “safe, well tolerated”.

By EC50 is commonly meant the midpoint of the concentration-response curve. As a reminder, the Tmax is the time at which the peak concentration occurs. Regarding `CCCN(C)C(=O)n1c(=O)n(Cc2ccccc2)c2nc(S(=N)(=O)CCC)nc(N)c21` (single isomer, unassigned) [Example 1-B], at human TLR7 (EC50 of prodrug over EC50 of corresponding active form), the “Ratio (EC50(prodrug)/EC50(active form))” value is 314.0. The EC50 at human TLR7 (prodrug, read-out: HEK293-hTLR-7 EC50 (Prodrug)) is 27000 nM. In addition, the AUC(0-t) in data set [3] (carotid artery plasma, read-out: AUC0-2 (nM · h), prodrug, Carotid sampling) came out at 0.04 µM·h; in data set [3] (portal vein plasma, read-out: AUC0-2 (nM · h), prodrug, Portal sampling), 0.266 µM·h. The Cmax worked out at 70 nM in data set [3] (carotid artery plasma, read-out: Cmax (nM), prodrug, Carotid sampling) and 670 nM in data set [3] (portal vein plasma, read-out: Cmax (nM), prodrug, Portal sampling). In addition, the Tmax in data set [3] (carotid artery plasma, read-out: Tmax (h), prodrug, Carotid sampling) turned out to be 0.083 h; in data set [3] (portal vein plasma, read-out: Tmax (h), prodrug, Portal sampling), 0.083 h. The “LYSA of Prodrugs” value in the data set “LYSA solubility study” (aqueous solubility, 0.05M phosphate buffer pH 6.5) is 200 µg/mL.

On to `CC[S@@](=N)(=O)c1nc(N)c2[nH]c(=O)n(Cc3ccc(C)cc3)c2n1` (single isomer, unassigned) [Compound 43e-A], for which, at human TLR7 (setting [4]), the EC50 was found to be 110 nM. In data set [1], the AUC(0-t) worked out at 0.077 µM·h, the concentration peaked (Cmax) at 15.2 nM, the concentration at 0.25 h came out at 12.6 nM and the concentration at 0.5 h amounted to 15.2 nM. In data set [1], the concentration at 1 h came out at 13 nM, the concentration at 2 h came to 12 nM, the concentration at 4 h stood at 8.2 nM and the concentration at 7 h came to 6.31 nM. Further, the solubility thermodynamic in the data set “LYSA solubility study” stood at 13 µg/mL (≈ 37.5 µM).

Turning to `CC[S@@](=N)(=O)c1nc(N)c2[nH]c(=O)n(Cc3ccc(Cl)cc3)c2n1` (single isomer, unassigned) [Compound 41c-B], on human TLR7 (setting [4]), the EC50 came out at 85 nM. In data set [1], the AUC(0-t) worked out at 0.0558 µM·h, the peak level (Cmax) was 5.46 nM, the concentration at 0.25 h is 3.41 nM and the concentration at 0.5 h was 0.75 nM. In data set [1], the concentration at 1 h was determined as 2.04 nM, the concentration at 2 h is 5.46 nM, the concentration at 4 h amounted to 2.52 nM and the concentration at 7 h was determined as 1.21 nM. In the data set “LYSA solubility study”, the solubility thermodynamic came to 5 µg/mL (≈ 13.6 µM).

Source of the values: US10233184B2, “7-substituted sulfonimidoylpurinone compounds and derivatives for the treatment and prophylaxis of virus infection” (Hoffmann-La Roche Inc., priority 2016, dated 2019).
